Test results taken from patent publication US20120077957A1, “Lactam-Bridged Melanocortin Receptor-Specific Peptides” (PALATIN TECHNOLOGIES, INC., priority 2009, published 2012).
Bridge positions count the residues as written; N and C are the ends. Square brackets hold non-standard residues; d marks the D form. Peptide text beside a SMILES is read from it. Orn = NCCC[C@H](N)C(=O)O

Biological target: T1, human MC4-R (Homo sapiens, UniProt P32245)
T1 construct: expressed in transfected cells; host or cells: HEK293 T-REx (tetracycline-regulated, Invitrogen); cell line from Palatin Technologies with license from the University of Michigan
T1 sequence (P32245 whole entry): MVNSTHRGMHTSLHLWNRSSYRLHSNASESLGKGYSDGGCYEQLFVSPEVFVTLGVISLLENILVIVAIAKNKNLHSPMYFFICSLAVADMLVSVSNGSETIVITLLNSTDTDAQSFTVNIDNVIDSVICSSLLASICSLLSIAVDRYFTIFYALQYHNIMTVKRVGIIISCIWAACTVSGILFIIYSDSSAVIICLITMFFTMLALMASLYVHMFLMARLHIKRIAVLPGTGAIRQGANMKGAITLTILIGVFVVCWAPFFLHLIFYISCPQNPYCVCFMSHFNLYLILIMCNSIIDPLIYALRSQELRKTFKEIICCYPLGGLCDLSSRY
Assay: cAMP functional assay in HEK-293 T-REx cells expressing human MC4-R, induced with doxycycline 0.1 ng/mL (low density)
Type: cell-based
Details: doxycycline 0.1 ng/mL, averages of all comparable assays; for Emax: HEK293-T-REx, maximal cAMP stimulation, NDP-α-MSH = 100%, read-out: Emax; for EC50: human MC4-R cAMP assay, read-out: Ec50
Excerpt: A HEK293 cell line transfected with human MC4-R (from Palatin Technologies, US, with license from the University of Michigan) was used. The human MC4-R was introduced to HEK293 by using the T-REx™ System, Invitrogen. The T-REx™ System employs a tetracycline-regulated mammalian expression system that uses regulatory elements from the E. coli Tn10-encoded tetracycline (Tet) resistance operon. By use of the T-REx™ System, expression of the gene of interest, the human MC4-R gene, is repressed in the absence of tetracycline or doxycycline and induced in the presence of tetracycline or doxycycline (see T-REx™ System Manual, published by Invitrogen).
Cells were then counted and volume was adjusted to 5×10^4 cells per 200 μL.
The cells were then dispensed into 96-well plates (BD 353916) in 198 μL (about 5×10^4) cells/well and incubated for 10 minutes at 37° C. The compound to be tested was diluted with DMSO to a final concentration of 1 mM. Serial dilution was prepared in polypropylene removable 12-well library tube strips (VWR cat #83009-682). 120 μL of the 1 mM compound stock was pipetted in the second column on the plate.
2 μL of the standard, [Nle^4, D-Phe^7]alpha-Melanocyte Stimulating Hormone (NDP-α-MSH), or compound was added to the 96-well plate using the Janus robotic system. All assay samples were run in duplicate (i.e. each sample was in two low dox and two high dox plates, respectively). The plates were gently shaken and incubated for 15 minutes at 37° C. The reaction was stopped by adding 15 μL of lysis buffer per well and the plates were shakened for 30 minutes at room temperature.
Agonist stimulation of the MC4-R activates adenylate cyclase, which is an enzyme that catalyses the formation 3′,5′-cyclic adenosine monophosphate (cAMP) from adenosine triphosphate (ATP). […] Fluoresence ratios were then calculated as described in the CisBio HTRF kit, with GraphPad Prism software used to plot the change in fluorescence percent values versus cAMP concentration using the variable slope dose response curve and, based on calculated cAMP concentrations, to determine EC50 and Emax values. […]

SMILES	Emax	EC50
CC(=O)N[C@H](CCCNC(=N)N)C(=O)N[C@H]1CC(=O)NCCCC[C@@H](C(N)=O)NC(=O)[C@H](Cc2c[nH]c3ccccc23)NC(=O)[C@H](CCCNC(=N)N)NC(=O)[C@@H](Cc2ccccc2)NC(=O)[C@H](Cc2c[nH]cn2)NC1=O [reference compound]	89%	–
CC(=O)N[C@@H](CCCNC(=N)N)C(=O)N[C@H]1CC(=O)NCCCC[C@@H](C(=O)NC2CC2)NC(=O)[C@H](Cc2c[nH]c3ccccc23)NC(=O)[C@H](CCCNC(=N)N)NC(=O)[C@@H](Cc2ccccc2)NC(=O)[C@H](CCC(N)=O)NC1=O [reference compound]	79%	9 nM
CC(=O)N[C@@H](CCCNC(=N)N)C(=O)N[C@H]1CCC(=O)NCCC[C@@H](C(=O)O)NC(=O)[C@H](Cc2c[nH]c3ccccc23)NC(=O)[C@H](CCCNC(=N)N)NC(=O)[C@@H](Cc2ccccc2)NC(=O)[C@H](CC(N)=O)NC1=O [No. 20, Ac-Arg-cyclo(Glu-Asn-D-Phe-Arg-Trp-Orn)-OH]	76%	12 nM
CC(=O)N[C@@H](CCCNC(=N)N)C(=O)N[C@H]1CC(=O)NCCCC[C@@H](C(=O)O)NC(=O)[C@H](Cc2c[nH]c3ccccc23)NC(=O)[C@H](CCCNC(=N)N)NC(=O)[C@@H](Cc2ccccc2)NC(=O)[C@H](CCC(N)=O)NC1=O [reference compound]	80%	19 nM
CC(=O)N[C@@H](CCCNC(=N)N)C(=O)N[C@H]1CC(=O)NCCCC[C@@H](C(N)=O)NC(=O)[C@H](Cc2c[nH]c3ccccc23)NC(=O)[C@H](CCCNC(=N)N)NC(=O)[C@@H](Cc2ccccc2)NC(=O)[C@H](CCCNC(N)=O)NC1=O [reference compound]	69%	–
CC(=O)N[C@@H](CCCNC(=N)N)C(=O)N[C@H]1CC(=O)NCCCC[C@@H](C(=O)O)NC(=O)[C@H](Cc2c[nH]c3ccccc23)NC(=O)[C@H](CCCNC(=N)N)NC(=O)[C@@H](Cc2ccccc2)NC(=O)[C@H](CC(N)=O)NC1=O [reference compound] (Ac-RDN[dF]RWK-OH; lactam 2-7)	73%	–
CC(=O)N[C@@H](CCCNC(=N)N)C(=O)N[C@H]1CCC(=O)NCCC[C@@H](C(=O)O)NC(=O)[C@H](Cc2c[nH]c3ccccc23)NC(=O)[C@H](CCCNC(=N)N)NC(=O)[C@@H](Cc2ccccc2)NC(=O)[C@H](CCCN)NC1=O [No. 7, Ac-Arg-cyclo(GIu-Orn-D-Phe-Arg-Trp-Orn)-OH]	92%	4 nM
CC(=O)N[C@@H](CCCNC(=N)N)C(=O)N[C@H]1CCC(=O)NCCC[C@@H](C(=O)O)NC(=O)[C@H](Cc2c[nH]c3ccccc23)NC(=O)[C@H](CCCNC(=N)N)NC(=O)[C@@H](Cc2ccccc2)NC(=O)[C@H](CCN)NC1=O [No. 5, Ac-Arg-cyclo(Glu-Dab-D-Phe-Arg-Trp-Orn)-OH]	94%	2 nM
CC(=O)N[C@@H](CCCNC(=N)N)C(=O)N[C@H]1CC(=O)NCCCC[C@@H](C(N)=O)NC(=O)[C@H](Cc2c[nH]c3ccccc23)NC(=O)[C@H](CCCNC(=N)N)NC(=O)[C@@H](Cc2ccccc2)NC(=O)[C@@H]2C[C@@H](O)CN2C1=O [reference compound]	39%	–
CC(=O)N[C@@H](CCCNC(=N)N)C(=O)N[C@H]1CC(=O)NCCCC[C@@H](C(=O)O)NC(=O)[C@H](Cc2c[nH]c3ccccc23)NC(=O)[C@H](CCCNC(=N)N)NC(=O)[C@@H](Cc2ccccc2)NC(=O)[C@H](Cc2c[nH]cn2)NC1=O [reference compound]	91%	4 nM
CC(=O)N[C@H](CCCNC(=N)N)C(=O)N[C@H]1CCCNC(=O)CC[C@@H](C(N)=O)NC(=O)[C@H](Cc2c[nH]c3ccccc23)NC(=O)[C@H](CCCNC(=N)N)NC(=O)[C@@H](Cc2ccccc2)NC(=O)[C@H](Cc2c[nH]cn2)NC1=O [No. 39, Ac-D-Arg-cyclo(Orn-His-D-Phe-Arg-Trp-Glu)-NH2]	103%	0.2 nM
CC(=O)N[C@@H](CCCNC(=N)N)C(=O)N[C@H]1CC(=O)NCCCC[C@@H](C(N)=O)NC(=O)[C@H](Cc2c[nH]c3ccccc23)NC(=O)[C@H](CCCNC(=N)N)NC(=O)[C@@H](Cc2ccccc2)NC(=O)[C@H](Cc2c[nH]cn2)NC1=O [reference compound]	83%	–
CC(=O)N[C@@H](CCCNC(=N)N)C(=O)N[C@H]1CCC(=O)NCCC[C@@H](C(=O)O)NC(=O)[C@H](Cc2c[nH]c3ccccc23)NC(=O)[C@H](CCCNC(=N)N)NC(=O)[C@@H](Cc2ccccc2)NC(=O)[C@H](CCC(N)=O)NC1=O [No. 11, Ac-Arg-cyclo(Glu-Gln-D-Phe-Arg-Trp-Orn)-OH]	81%	–
CC(=O)N[C@@H](CCCNC(=N)N)C(=O)N[C@H]1CCC(=O)NCCC[C@@H](C(N)=O)NC(=O)[C@H](Cc2c[nH]c3ccccc23)NC(=O)[C@H](CCCNC(=N)N)NC(=O)[C@@H](Cc2ccccc2)NC(=O)[C@H](CCCCN)NC1=O [No. 16, Ac-Arg-cyclo(Glu-Lys-D-Phe-Arg-Trp-Orn)-NH2] (Ac-REK[dF]RW[Orn]-NH2; lactam 2-7)	104%	2 nM

Continued, values first:

Emax	EC50	SMILES
75%	–	CC(=O)NCC[C@@H]1NC(=O)[C@@H](NC(=O)[C@H](CCCNC(=N)N)NC(C)=O)CCC(=O)NCCC[C@@H](C(N)=O)NC(=O)[C@H](Cc2c[nH]c3ccccc23)NC(=O)[C@H](CCCNC(=N)N)NC(=O)[C@@H](Cc2ccccc2)NC1=O [No. 18, Ac-Arg-cyclo(Glu-Dab(Acetyl)-D-Phe-Arg-Trp-Orn)-NH2]
87%	–	CC(=O)N[C@@H](CCCNC(=N)N)C(=O)N[C@H]1CCC(=O)NCCC[C@@H](C(N)=O)NC(=O)[C@H](Cc2c[nH]c3ccccc23)NC(=O)[C@H](CCCNC(=N)N)NC(=O)[C@@H](Cc2ccccc2)NC(=O)[C@H](CCCNC(N)=O)NC1=O [No. 15, Ac-Arg-cyclo(Glu-Cit-D-Phe-Arg-Trp-Orn)-NH2]
75%	–	CC(=O)N[C@@H](CCCNC(=N)N)C(=O)N[C@H]1CC(=O)NCCCC[C@@H](C(=O)O)NC(=O)[C@H](Cc2c[nH]c3ccccc23)NC(=O)[C@H](CCCNC(=N)N)NC(=O)[C@@H](Cc2ccccc2)NC(=O)[C@H](CCCNC(=N)N)NC1=O [reference compound]
88%	–	CC(=O)N[C@@H](CCCNC(=N)N)C(=O)N[C@H]1CCCNC(=O)CC[C@@H](C(N)=O)NC(=O)[C@H](Cc2c[nH]c3ccccc23)NC(=O)[C@H](CCCNC(=N)N)NC(=O)[C@@H](Cc2ccccc2)NC(=O)[C@H](CC(N)=O)NC1=O [No. 46, Ac-Arg-cyclo(Orn-Asn-D-Phe-Arg-Trp-Glu)-NH2]
49%	26 nM	CC(=O)N[C@H]1CCC(=O)NCCC[C@@H](C(N)=O)NC(=O)[C@H](Cc2c[nH]c3ccccc23)NC(=O)[C@H](CCCNC(=N)N)NC(=O)[C@@H](Cc2ccccc2)NC(=O)[C@H](CCC(N)=O)NC1=O [No. 21, Ac-cyclo(Glu-Gln-D-Phe-Arg-Trp-Orn)-NH2] (Ac-EQ[dF]RW[Orn]-NH2; lactam 1-6)
68%	–	CC(=O)N[C@@H](CCCNC(=N)N)C(=O)N[C@H]1CC(=O)NCCCC[C@@H](C(N)=O)NC(=O)[C@H](Cc2c[nH]c3ccccc23)NC(=O)[C@H](CCCNC(=N)N)NC(=O)[C@@H](Cc2ccccc2)NC(=O)[C@H](CCCNC(=N)N)NC1=O [reference compound]
35%	–	CC(=O)N[C@H]1CC(=O)NCCCC[C@@H](C(N)=O)NC(=O)[C@H](Cc2c[nH]c3ccccc23)NC(=O)[C@H](CCCNC(=N)N)NC(=O)[C@@H](Cc2ccccc2)NC(=O)[C@H](CCC(N)=O)NC1=O [reference compound] (Ac-DQ[dF]RWK-NH2; lactam 1-6)
98%	–	CC(=O)N[C@@H](CCCNC(=N)N)C(=O)N[C@H]1CCC(=O)NCCC[C@@H](C(N)=O)NC(=O)[C@H](Cc2c[nH]c3ccccc23)NC(=O)[C@H](CCCNC(=N)N)NC(=O)[C@@H](Cc2ccccc2)NC(=O)[C@H](CCCNC(=N)N)NC1=O [No. 10, Ac-Arg-cyclo(Glu-Arg-D-Phe-Arg-Trp-Orn)-NH2]
43%	–	CC(=O)N[C@@H](CCCNC(=N)N)C(=O)N[C@H]1CC(=O)NCCCC[C@@H](C(N)=O)NC(=O)[C@H](Cc2c[nH]c3ccccc23)NC(=O)[C@H](CCCNC(=N)N)NC(=O)[C@@H](Cc2ccccc2)NC(=O)[C@@H]2CCCN2C1=O [reference compound]
91%	–	CC(=O)N[C@@H](CCCNC(=N)N)C(=O)N[C@H]1CC(=O)NCCCC[C@@H](C(=O)O)NC(=O)[C@H](Cc2c[nH]c3ccccc23)NC(=O)[C@H](CCCNC(=N)N)NC(=O)[C@@H](Cc2ccccc2)NC(=O)[C@H](CCN)NC1=O [reference compound]
91%	–	CC(=O)N[C@@H](CCCNC(=N)N)C(=O)N[C@H]1CC(=O)NCCCC[C@@H](C(N)=O)NC(=O)[C@H](Cc2c[nH]c3ccccc23)NC(=O)[C@H](CCCNC(=N)N)NC(=O)[C@@H](Cc2ccccc2)NC(=O)[C@H](CCN)NC1=O [reference compound]
